Values after ≈ are worked out from the molar mass of the structure shown.
Key:
[1] = tested on: K. pneumoniae ATCC BAA-1705; experiment: MIC 90, resistant ATCC strains of the ESKAPE panel; assay type: cell-based; settings: Klebsiella pneumoniae, ATCCBAA1705, KPC
Text: (§1) 3.3 Protocol for MIC Determination (ATCC Strains)
(§2) Tested reference compounds. Amikacin sulfate (Cat. No. 01693, Chem-Impex), Gentamicin sulfate (Cat. No. G4918, Sigma Aldrich), Azithromycin (Cat. No. 1046056, USP), Ceftazidime Pentahydrate (Cat. No. 1098130, USP), Ciprofloxacin (Cat. No. 1134313, USP), Meropenem (Cat. No. 1392454, USP), Rifampicin (Cat. No. R0079, TCI), Tobramycin (Cat. No. 1667508, USP), Vancomycin (Cat. No. 1709007 USP).
(§3) Microbial strains. Staphylococcus aureus ATCC 29213, Staphylococcus aureus ATCC BAA-1717, Escherichia coli ATCC BAA-1025, Klebsiella pneumoniae ATCC BAA-1705, Klebsiella pneumoniae ATCC BAA-2524, Pseudomonas aeruginosa ATCC 27853, Pseudomonas aeruginosa ATCC BAA-2108, Acinetobacter baumannii ATCC BAA-1800.
(§4) Culture media and equipment. BBL™ Mueller Hinton Broth (REF 275730, Lot. 7009699, Becton Dickinson), Mueller Hinton Agar 2 (Ref. No. 97580-500G-F, Lot. No. BCBV4646, Sigma), Dulbecco's Modified Eagle's Medium (DMEM) (Cat. No. 41966-029, Gibco), Minimum Essential Medium (MEM) (Cat. No. 42360-024, Gibco), Fetal bovine serum (FBS) (Cat. No. F7524, Sigma), Non-essential amino acids (NEAA) (100×, Cat. No. 11140-035, Gibco), Sodium Pyruvate (100 mM, 100×, Cat. No. 11360-039, Gibco), Staurosporine (Cat. No. B50188, Biotrend), Cellstar 96-well plates U-bottom (Cat. No. 650180, Lot. No. E14123EB, Greiner Bio-one), CellTiter-Glo (Cat. No. G7573, Promega), 96-well plate V-bottom (Cat. No. 651201, Greiner), 96-well clear plate, U-bottom, (Cat. No. 650180, Greiner), 96-well white plate with clear bottom (Cat. No. 655098, Greiner), 96-well deep well plate 1 mL (Cat. No. 278606, Nunc), Sodium Pyruvate (100 mM, 100×, Gibco, Cat #11360-039), Incubator (Binder), Laminar flow (Thermo Scientific), BioPhotometer (Eppendorf); DEN-1B (McFarland Densitometer, Biosan); McFarland standards (polymer microparticle suspension, Biosan).
(§5) Compound preparation. The test compounds and reference antibiotics were prepared according to CLSI guidelines (Clinical and Laboratory Standards Institute (CLSI); Methods for dilution antimicrobial susceptibility tests for bacteria that grow aerobically; approved standard—ninth edition, M07-A9, Vol. 32, No. 2, 2012) as 5 mg/mL stock solutions in DMSO. Out of these DMSO solutions, 43.5 μL was transferred to 1656.5 μL of MH media in a deep well plate. Out of these working solutions 100 μL was transferred to wells in the third column of 96-well plates. Plates were previously filled with 50 μL of MH media in all wells except for the wells in the third column. After compound and antibiotic addition, 50 μL was transferred from the third to the fourth column, then from the fourth to the fifth and so on. In this manner, the compounds and antibiotics were plated in 96-well plate in serial two-fold dilutions giving a final concentration range of 64-0.125 μg/mL.
(§6) Preparation of microorganisms. Designations used for clinical isolates were from the Fidelta strain collection bank. Microorganisms used were all revived from skim milk storage at −70° C. by plating them on MH agar plates. The following day the single colony of each microorganism was again streaked on fresh agar plates. The next day, using the direct colony suspension method, broth solutions that achieve turbidity equivalent to 0.5 McFarland standard for each microorganism were prepared. […] Out of these suspensions, actual inoculums were prepared by diluting them 100× with MH media giving a final microorganism count of 2-8×10^5 CFU/mL. For each strain of microorganisms, 20 mL of these inoculum solutions were prepared. From the second to the twelfth column of 96-well plates, 50 μL of these solutions were transferred per well. To the first column, 50 μL per well of pure growth media was added. In this manner the first column was used as sterility control of media, the second column was used as control of microorganism's growth and the rest of the plate was used for MIC determination. All plates were incubated for 16-24 h at 37° C. […]

[2] = tested on: P. aeruginosa ATCC BAA-2108; experiment: MIC 90, resistant ATCC strains of the ESKAPE panel; assay type: cell-based; settings: Pseudomonas aeruginosa, ATCCBAA2108, MDR
Text: as §1, §2, §3, §4, §5, §6

S. aureus ATCC BAA-1717 = experiment: MIC 90, resistant ATCC strains of the ESKAPE panel; assay type: cell-based; settings: Staphylococcus aureus, MRSA
Text: as §1, §2, §3, §4, §5, §6

[3] = tested on: A. baumannii ATCC BAA-1800; experiment: MIC 90, resistant ATCC strains of the ESKAPE panel; assay type: cell-based; settings: Acinetobacter baumannii, ATCCBAA1800, MDR
Text: as §1, §2, §3, §4, §5, §6

[4] = tested on: K. pneumoniae ATCC BAA-2524; experiment: MIC 90, resistant ATCC strains of the ESKAPE panel; assay type: cell-based; settings: Klebsiella pneumoniae, ATCCBAA2524, OXA-48
Text: as §1, §2, §3, §4, §5, §6

P. aeruginosa ATCC 27853 = experiment: MIC 90, broth micro-dilution, ATCC strains; assay type: cell-based, Pseudomonas aeruginosa; settings: Pseudomonas aeruginosa, ATCC27853, read-out: MIC 90
Text: as §1, §2, §3, §4, §5, §6

[5] = tested on: E. coli ATCC BAA-1025 (= BL 21); experiment: MIC 90, broth micro-dilution, ATCC strains; assay type: cell-based, Escherichia coli; settings: Escherichia coli, ATCCBAA1025, read-out: MIC 90
Text: as §1, §2, §3, §4, §5, §6

S. aureus ATCC 29213 = experiment: MIC 90, broth micro-dilution, ATCC strains; assay type: cell-based, Staphylococcus aureus; settings: Staphylococcus aureus, ATCC29213, read-out: MIC 90
Text: as §1, §2, §3, §4, §5, §6

| Compound | MIC90 [1] | MIC90 [2] | MIC90 (S. aureus ATCC BAA-1717) | MIC90 [3] | MIC90 [4] | MIC90 (P. aeruginosa ATCC 27853) | MIC90 [5] | MIC90 (S. aureus ATCC 29213) |
| --- | --- | --- | --- | --- | --- | --- | --- | --- |
| N=C(N)NC1C(O)[C@@H](CO)OC(OC2C(F)[C@H](O[C@H]3OC(CN)[C@@H](O)CC3N)C(N)C[C@H]2NC(=O)[C@@H](O)CCN)[C@@H]1O (stereo partly drawn) [ABX5006, Tobra-AHB-F-Gua] | 2 mg/L (≈ 3.26 µM) | 4 mg/L (≈ 6.53 µM) | 0.5 mg/L (≈ 0.816 µM) | 16 mg/L (≈ 26.1 µM) | < 0.125 mg/L | 0.25 µM (≈ 0.153 µg/mL) | 0.5 µM (≈ 0.306 µg/mL) | 0.5 µM (≈ 0.306 µg/mL) |
| N=C(NC[C@@H]1CCCN1)NC1[C@@H](O)C(OC2[C@@H](F)[C@H](O[C@H]3OC(CN)[C@@H](O)CC3N)C(N)C[C@H]2NC(=O)[C@@H](O)CCN)O[C@H](CO)[C@H]1O (stereo partly drawn) [ABX5026, Tobra-AHB-F-Gua (S) pyrrolidine-2-yl-methyl] | 4 mg/L (≈ 5.75 µM) | 8 mg/L (≈ 11.5 µM) | 0.5 mg/L (≈ 0.719 µM) | 32 mg/L (≈ 46 µM) | 0.5 mg/L (≈ 0.719 µM) | 1 µM (≈ 0.696 µg/mL) | 1 µM (≈ 0.696 µg/mL) | 0.5 µM (≈ 0.348 µg/mL) |
| NCC[C@H](O)C(=O)N[C@@H]1C[C@H](N)[C@@H](O[C@H]2O[C@H](CN)[C@@H](O)[C@H](O)[C@H]2O)[C@H](O)[C@H]1O[C@H]1O[C@H](CO)[C@@H](O)[C@H](N)[C@H]1O [Amikacin, amikacin, reference compound] | 32 mg/L (≈ 54.6 µM) | 16 mg/L (≈ 27.3 µM) | 4 mg/L (≈ 6.83 µM) | 64 mg/L (≈ 109 µM) | 0.5 mg/L (≈ 0.854 µM) | 1 µM (≈ 0.586 µg/mL) | 2 µM (≈ 1.17 µg/mL) | 4 µM (≈ 2.34 µg/mL) |
